Active and inactive are the calls of the source. The calls are words filed in the database; no cut-off is given here.
How the values were obtained:
MCF-10A [1] = test: Induction of apoptosis in human MCF-10A cells assessed as late apoptotic cells at 10 uM measured after 72 hrs by annexinV-FITC/propidium iodide staining based flow cytometry (reference value: 13.9 %); format: cell-based
[2] = AUC in C57BL/6 mouse at 1 mg/kg, iv measured after 5 mins by LC-MS/MS analysis; format: ADME, organism-based; set-up: route intravenous, dose 1 mg/kg, time 5 min; conditions: in vivo
MCF-10A [3] = test: Induction of apoptosis in human MCF-10A cells assessed as early apoptotic cells at 40 uM measured after 72 hrs by annexinV-FITC/propidium iodide staining based flow cytometry (reference value: 28.9 %); format: cell-based
[4] = Solubility of the compound in EtOH/saline (5/95) at 2 mg/ml; format: physicochemical; conditions: buffer
[5] = Aqueous solubility of the compound; format: physicochemical; conditions: buffer
Mus musculus [6] = species on record: Mus musculus; conditions: dose 90.0 mg/kg, time 5.0 day
4013 = test: Antitumor activity against patient-derived 4013 cells orthotopically xenografted in SCID-Beige mouse assessed as reduction in tumor weight at 90 mg/kg, po via gavage for 5 days; format: functional, organism-based; conditions: Homo sapiens, time 5.0 day
MDA-MB-468 [7] = test: cells; conditions: Homo sapiens, MDA-MB-468, 72 h
Description: Antiproliferative activity against human MDA-MB-468 cells assessed as cell growth inhibition measured after 72 hrs by MTS assay

[8] = Toxicity in SCID-Beige mouse orthotopically xenografted with patient-derived 4013 cells at 90 mg/kg, po via gavage for 5 days; format: organism-based; conditions: in vivo, 120 h, time 5 day
[9] = Solubility of the compound in DMSO/Tween-80/H2O (10/10/80) at 2 mg/ml; format: physicochemical
Mus musculus [10] = species on record: Mus musculus; conditions: dose 90.0 mg/kg, time 5.0 day; remark: listed apart in the source
SW480 [11] = test: Downregulation of HPRT mRNA expression in human SW480 cells at 10 to 40 uM measured after 24 hrs by qRT-PCR analysis; format: functional, cell-based; conditions: dose 10-40 µM
MDA-MB-468 [12] = test: Antiproliferative activity against human MDA-MB-468 cells harboring beta-catenin pcDNA3.1 vector at 20 uM measured after 72 hrs by MTS assay; format: functional, cell-based
MDA-MB-231 [13] = test: Antiinvasive activity against human MDA-MB-231 cells cultured as 3D-spheroids at 5 uM measured after 6 days by imaging analysis relative to control; format: functional; conditions: time 6 day
MDA-MB-231 [14] = test: Induction of apoptosis in human MDA-MB-231 cells assessed as early apoptotic cells at 40 uM measured after 72 hrs by annexinV-FITC/propidium iodide staining based flow cytometry (reference value: 5.3 %); format: functional
Mus musculus [15] = species on record: Mus musculus; conditions: dose 90.0 mg/kg, time 5.0 day; remark: listed apart in the source
Mus musculus [16] = species on record: Mus musculus; conditions: dose 90.0 mg/kg, time 5.0 day; remark: listed apart in the source
SW480 [17] = test: Inhibition of Wnt/beta-catenin transactivation signalling in human SW480 cells assessed as relative activity at 6.25 uM measured after 24 hrs by TOPFlash reporter gene assay relative to control; format: cell-based; set-up: scale not given: the % may be the effect or the level left
Mus musculus [18] = species on record: Mus musculus; conditions: dose 90.0 mg/kg, time 5.0 day; remark: listed apart in the source
[19] = Cmax in C57BL/6 mouse at 20 mg/kg, po via gavage measured up to 24 hrs by LC-MS/MS analysis; format: ADME, organism-based; set-up: route oral, dose 20 mg/kg, time <=24; conditions: in vivo
MDA-MB-231 [20] = test: cells; conditions: Homo sapiens, MDA-MB-231, 72 h
Description: Antiproliferative activity against human MDA-MB-231 cells assessed as cell growth inhibition measured after 72 hrs by MTS assay

MDA-MB-468 [21] = test: Induction of apoptosis in human MDA-MB-468 cells assessed as early apoptotic cells at 40 uM measured after 72 hrs by annexinV-FITC/propidium iodide staining based flow cytometry (reference value: 28.9 %); format: functional
MDA-MB-468 [22] = test: Induction of apoptosis in human MDA-MB-468 cells assessed as late apoptotic cells at 10 uM measured after 72 hrs by annexinV-FITC/propidium iodide staining based flow cytometry (reference value: 13.9 %); format: functional

AUC [2]: 0.71 µM·h
solubility [4]: Soluble
solubility [5]: > 3000 µM
IC50 (MDA-MB-468 [7]): 9.6 µM
solubility [9]: Soluble
Cmax [19]: 3.21 µM
IC50 (MDA-MB-231 [20]): 28 µM
Structure (SMILES): CC(C)(Oc1cccc(N2CCC[C@@H](C(=O)N(Cc3ccc(-c4cn[nH]c4)cc3)C3CC3)C2)c1)C(=O)N1CCNCC1.Cl
Activity (MCF-10A [1]): 12.3%
Activity (MCF-10A [3]): 3.9%
inhibition (Mus musculus [6]): Active
Activity 4013: inactive
Activity [8]: Toxic
inhibition (Mus musculus [10]): Active
Activity (SW480 [11]): inactive
Activity (MDA-MB-468 [12]): inactive
Activity (MDA-MB-231 [13]): 76.3%
Activity (MDA-MB-231 [14]): 53.1%
inhibition (Mus musculus [15]): Active
inhibition (Mus musculus [16]): Active
Activity (SW480 [17]): 97%
inhibition (Mus musculus [18]): Active
Activity (MDA-MB-468 [21]): 53.5%
Activity (MDA-MB-468 [22]): 17.6%
